Here are results for 9 sequences from patent US20260250318A1, “COMPOSITIONS AND METHODS FOR CROSSING THE BLOOD BRAIN BARRIER” (VOYAGER THERAPEUTICS, INC., priority 2022, published 2026).

Assay [1] has as its system brains, heart, liver, muscle, and DRG of the NHPs. Kind of assay: Maturation of TTM-001 and TTM-002 capsids, NGS enrichment in NHP tissues. The class given is in vivo. The settings on record: relative to AAV9 control. A digest of the protocol: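 Variants carry mutations within and flanking the loop IV peptide insert: positions 450–466 were triplet-randomized, while positions 449–466 received low-frequency point mutations. The combined pool went into two NHPs, and each peptide was scored by NGS enrichment ratio against AAV9.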

A further assay relates to brain. Kind of assay: Matured TTM-001 and TTM-002 variants, NGS enrichment in mouse brain. The class given is in vivo, mice. Conditions: relative to AAV9 control.
[2] abbreviates: NGS fold-enrichment of matured AAV capsid variants, NHP brain, RNA.
Setting [3] is: NGS fold-enrichment of RNA, NHP brain.
Setting [4] is: NGS fold-enrichment, NHP liver DNA.
Where [5] appears, read: NGS fold-enrichment, NHP liver RNA.
Where [6] appears, read: NGS fold-enrichment, NHP muscle.
The mark [7] stands for this setting: NGS fold-enrichment, mouse brain.

For KSDIGSGSPHSKAQNQQT, the “Fold Enrichment relative to AAV9, Brain (NHP)” value in assay [1] (setting [2]) worked out at 57.592 fold. The “Fold Enrichment relative to AAV9, DRG (NHP)” value in assay [1] (NHP DRG) is 0.000 fold. In addition, the “Fold Enrichment relative to AAV9, Heart (NHP)” value in assay [1] (NHP heart) is on record as 0.000 fold. Besides, the “Fold Enrichment relative to AAV9, Liver DNA (NHP)” value in assay [1] (NHP liver, DNA) is 0.128 fold. In assay [1] (NHP liver, RNA), the “Fold Enrichment relative to AAV9, Liver RNA (NHP)” value is 0.844 fold. Moreover, in assay [1] (NHP muscle), the “Fold Enrichment relative to AAV9, Muscle (NHP)” value is given as 0.000 fold. Further, the “Fold Enrichment relative to AAV9, Brain (Mouse)” value with brain (mouse brain) worked out at 107.342 fold.
KTREISGSPHSKAQNQQT: the “Fold Enrichment relative to AAV9, Brain (NHP)” value in assay [1] (setting [2]) was 59.027 fold. Also, in assay [1] (NHP DRG), the “Fold Enrichment relative to AAV9, DRG (NHP)” value turned out to be 0.000 fold. Moreover, the “Fold Enrichment relative to AAV9, Heart (NHP)” value in assay [1] (NHP heart) stood at 0.042 fold. Besides, the “Fold Enrichment relative to AAV9, Liver DNA (NHP)” value in assay [1] (NHP liver, DNA) stood at 0.269 fold. The “Fold Enrichment relative to AAV9, Liver RNA (NHP)” value in assay [1] (NHP liver, RNA) amounted to 0.356 fold. For the same sequence, in assay [1] (NHP muscle), the “Fold Enrichment relative to AAV9, Muscle (NHP)” value is recorded as 0.224 fold. Moreover, the “Fold Enrichment relative to AAV9, Brain (Mouse)” value with brain (mouse brain) amounted to 51.696 fold.
For KTVKDSGSPHSKAQNQQT, the “Fold Enrichment relative to AAV9, DRG (NHP)” value in assay [1] (NGS fold-enrichment, DRG of NHPs) is 0.000 fold. The “Fold Enrichment relative to AAV9, Brain (NHP)” value in assay [1] (NGS fold-enrichment, RNA, brain of NHPs) was determined as 60.216 fold. Besides, the “Fold Enrichment relative to AAV9, Heart (NHP)” value in assay [1] (NGS fold-enrichment, heart of NHPs) was 0.019 fold. Further, in assay [1] (NGS fold-enrichment, liver DNA of NHPs), the “Fold Enrichment relative to AAV9, Liver DNA (NHP)” value was 0.251 fold. Further, in assay [1] (NGS fold-enrichment, liver RNA of NHPs), the “Fold Enrichment relative to AAV9, Liver RNA (NHP)” value came out at 0.443 fold. Also, in assay [1] (NGS fold-enrichment, muscle of NHPs), the “Fold Enrichment relative to AAV9, Muscle (NHP)” value is on record as 0.000 fold. Moreover, the “Fold Enrichment relative to AAV9, Brain (Mouse)” value with brain (NGS fold-enrichment, brain of mice) was 87.334 fold.
For the sequence KTSNGSGSPHSKAQNYQT, in assay [1] (setting [2]), the “Fold Enrichment relative to AAV9, Brain (NHP)” value came out at 57.894 fold. Besides, in assay [1] (NHP DRG), the “Fold Enrichment relative to AAV9, DRG (NHP)” value is listed as 0.000 fold. Besides, in assay [1] (NHP heart), the “Fold Enrichment relative to AAV9, Heart (NHP)” value came to 0.082 fold. Besides, the “Fold Enrichment relative to AAV9, Liver DNA (NHP)” value in assay [1] (NHP liver, DNA) was 0.110 fold. Moreover, in assay [1] (NHP liver, RNA), the “Fold Enrichment relative to AAV9, Liver RNA (NHP)” value was determined as 0.000 fold. Also, the “Fold Enrichment relative to AAV9, Muscle (NHP)” value in assay [1] (NHP muscle) is recorded as 0.000 fold. Moreover, the “Fold Enrichment relative to AAV9, Brain (Mouse)” value in the assay on brain (mouse brain) is listed as 63.681 fold.
As to KTINGHDSPHKSWVRQQT, in assay [1] (setting [3]), the “Fold Enrichment relative to AAV9, Brain (NHP)” value is on record as 125.537 fold. Also, the “Fold Enrichment relative to AAV9, DRG (NHP)” value in assay [1] (NGS fold-enrichment, NHP DRG) is listed as 0.000 fold. Also, the “Fold Enrichment relative to AAV9, Heart (NHP)” value in assay [1] (NGS fold-enrichment, NHP heart) was determined as 0.033 fold. The “Fold Enrichment relative to AAV9, Liver DNA (NHP)” value in assay [1] (setting [4]) is recorded as 0.174 fold. In addition, the “Fold Enrichment relative to AAV9, Liver RNA (NHP)” value in assay [1] (setting [5]) is 0.291 fold. The “Fold Enrichment relative to AAV9, Muscle (NHP)” value in assay [1] (setting [6]) was 0.000 fold. Also, the “Fold Enrichment relative to AAV9, Brain (Mouse)” value in the assay with brain (setting [7]) amounted to 11.687 fold.
For KTEGKHDSPHKSGQNQQT, the “Fold Enrichment relative to AAV9, Brain (NHP)” value in assay [1] (setting [3]) came out at 98.384 fold. Further, in assay [1] (NGS fold-enrichment, NHP DRG), the “Fold Enrichment relative to AAV9, DRG (NHP)” value is 0.000 fold. Also, the “Fold Enrichment relative to AAV9, Heart (NHP)” value in assay [1] (NGS fold-enrichment, NHP heart) stood at 0.056 fold. Further, the “Fold Enrichment relative to AAV9, Liver DNA (NHP)” value in assay [1] (setting [4]) was 0.000 fold. Moreover, the “Fold Enrichment relative to AAV9, Liver RNA (NHP)” value in assay [1] (setting [5]) is 0.000 fold. Further, the “Fold Enrichment relative to AAV9, Muscle (NHP)” value in assay [1] (setting [6]) is recorded as 0.000 fold. Further, the “Fold Enrichment relative to AAV9, Brain (Mouse)” value in the assay with brain (setting [7]) is given as 10.345 fold.
Consider KTEHVSGSPHSKAQNQQT, for which the “Fold Enrichment relative to AAV9, Brain (NHP)” value in assay [1] (setting [2]) amounted to 58.228 fold. In addition, the “Fold Enrichment relative to AAV9, DRG (NHP)” value in assay [1] (NHP DRG) was 0.000 fold. Besides, in assay [1] (NHP heart), the “Fold Enrichment relative to AAV9, Heart (NHP)” value came out at 0.024 fold. For the same sequence, the “Fold Enrichment relative to AAV9, Liver DNA (NHP)” value in assay [1] (NHP liver, DNA) is recorded as 0.141 fold. For the same sequence, the “Fold Enrichment relative to AAV9, Liver RNA (NHP)” value in assay [1] (NHP liver, RNA) was found to be 0.433 fold. The “Fold Enrichment relative to AAV9, Muscle (NHP)” value in assay [1] (NHP muscle) worked out at 0.000 fold. Besides, in the assay with brain (mouse brain), the “Fold Enrichment relative to AAV9, Brain (Mouse)” value is reported as 71.410 fold.
As for KNVNGSGSPHSKAQNQQT, the “Fold Enrichment relative to AAV9, Brain (NHP)” value in assay [1] (setting [2]) is 58.481 fold. Moreover, the “Fold Enrichment relative to AAV9, DRG (NHP)” value in assay [1] (NHP DRG) was 0.000 fold. Besides, the “Fold Enrichment relative to AAV9, Heart (NHP)” value in assay [1] (NHP heart) was 0.000 fold. For the same sequence, the “Fold Enrichment relative to AAV9, Liver DNA (NHP)” value in assay [1] (NHP liver, DNA) is recorded as 0.166 fold. The “Fold Enrichment relative to AAV9, Liver RNA (NHP)” value in assay [1] (NHP liver, RNA) stood at 0.917 fold. The “Fold Enrichment relative to AAV9, Muscle (NHP)” value in assay [1] (NHP muscle) is reported as 0.000 fold. Moreover, the “Fold Enrichment relative to AAV9, Brain (Mouse)” value in the assay on brain (mouse brain) is listed as 53.379 fold.
As for KTEVTSGSPHSKAQNQQT, the “Fold Enrichment relative to AAV9, Brain (NHP)” value in assay [1] (setting [2]) is reported as 54.663 fold. Further, the “Fold Enrichment relative to AAV9, DRG (NHP)” value in assay [1] (NHP DRG) is recorded as 0.000 fold. In addition, in assay [1] (NHP heart), the “Fold Enrichment relative to AAV9, Heart (NHP)” value was 0.000 fold. Moreover, the “Fold Enrichment relative to AAV9, Liver DNA (NHP)” value in assay [1] (NHP liver, DNA) is on record as 0.185 fold. In addition, in assay [1] (NHP liver, RNA), the “Fold Enrichment relative to AAV9, Liver RNA (NHP)” value stood at 0.323 fold. Also, in assay [1] (NHP muscle), the “Fold Enrichment relative to AAV9, Muscle (NHP)” value is given as 0.000 fold. Moreover, the “Fold Enrichment relative to AAV9, Brain (Mouse)” value in the assay with brain (mouse brain) was 81.482 fold.
